The values that follow come from paper PMC6213879, “Synthesis and Biological Evaluation of Novel Dehydroabietic Acid-Oxazolidinone Hybrids for Antitumor Properties” (International Journal of Molecular Sciences, 2018).

What all share (assay type): cell-based
For assay [1], the system named is MGC-803 human gastric cancer cell line. The assay can be described thus: MTT cytotoxicity assay, MGC-803. Conditions: Homo sapiens, MGC-803, 48 h, mean ± SD from three independent experiments. As for the experimental part: (§1) The in vitro antiproliferative activity of the DHAA derivatives 3a–o and 4a–o against four human cancer cell lines (MGC-803 human gastric cancer cell line, CNE-2 human nasopharyngeal carcinoma cell line, SK-OV-3 human ovarian carcinoma cell line, NCI-H460 human lung cancer cell line) and the human normal liver cell line LO2 were evaluated by MTT (methyl thiazolytetrazolium) assay and compared with the parent compound DHAA and the positive control cisplatin in each panel.
(§2) The cytotoxicity of the compounds was evaluated against NCI-H460, MGC-803, SK-OV-3, CNE-2 and LO2 using an MTT assay. Cells were grown on 96-well micro-plates at a density of 4 × 10^3 cells per well in DMEM (dulbecco’s modified eagle medium) medium with 10% FBS (fetal bovine serum). The plates were incubated at 37 °C with 5% CO2. The cells were then exposed to different concentrations of target compounds and cisplatin and incubated for another 48 h. Control wells were formed by culture media with the maximum concentration of DMSO used in each assay (1‰). The cells were stained with 20 µL of MTT in an incubator for about 4 h. The medium was thrown away and replaced by […] DMSO. The absorbance (OD) value was read at 490 nm on an enzyme labeling instrument. Each experiment was repeated at least three times to obtain the mean values.

Assay [2] deals with CNE-2 human nasopharyngeal carcinoma cell line. Briefly: MTT cytotoxicity assay, CNE-2. The conditions noted are these: Homo sapiens, CNE-2, 48 h, mean ± SD from three independent experiments. As to the method:
as §1, §2
A general note: Tetrazolium dyes change colour on reduction, which living cells bring about.

Assay [3] deals with SK-OV-3 human ovarian carcinoma cell line. Briefly: MTT cytotoxicity assay, SK-OV-3. The conditions noted are these: Homo sapiens, SK-OV-3, 48 h, mean ± SD from three independent experiments. As to the method: as §1, §2
For assay [4], the system named is NCI-H460 human lung cancer cell line. The assay can be described thus: MTT cytotoxicity assay, NCI-H460. The conditions noted are these: Homo sapiens, NCI-H460, 48 h, mean ± SD from three independent experiments. As for the experimental part:
as §1, §2

Assay [5] concerns human normal liver cell line LO2. Briefly: MTT cytotoxicity assay, normal LO2 cells. Conditions: Homo sapiens, L02, 48 h, mean ± SD from three independent experiments. As for the experimental part:
as §1, §2

A word on the IC50: it is the concentration needed to halve the response being measured. High values mean weaker potency, low ones greater potency. Consider `Cc1ccc(N2CC(COC(=O)[C@]3(C)CCC[C@]4(C)c5ccc(C(C)C)cc5CCC34)OC2=O)cc1` (stereo partly drawn) [Compound 4d, (1R,4aS)-(3-(4-Methylphenyl)-2-Oxooxazolidin-5-yl)Methyl-7-Isopropyl-1,4a-Dimethyl-1,2,3,4,4a,9,10,10a-Octahydrophenanthrene-1-Carboxylate], for which the IC50 worked out at 5.97 ± 0.87 µM in assay [1]; 21.1 ± 1.96 µM in assay [2]; 19.7 ± 1.33 µM in assay [3]; 2.91 ± 2.38 µM in assay [4]; 30.6 ± 1.99 µM in assay [5].

With `CC(C)c1ccc2c(c1)CCC1[C@](C)(C(=O)OCC(O)CNc3ccccc3F)CCC[C@]21C` (stereo partly drawn) [Compound 3h, (1R,4aS)-2-Hydroxy-3-(2-Fluorophenylamino)Propyl-7-Isopropyl-1,4a-Dimethyl-1,2,3,4,4a,9,10, 10a-Octahydrophenanthrene-1-Carboxylate], the IC50 is 17.5 ± 3.51 µM in assay [1]; 45.7 ± 5.8 µM in assay [2]; greater than 100 µM in assay [3]; 30.2 ± 3.4 µM in assay [4]; greater than 100 µM in assay [5].

For `COc1ccc(N2CC(COC(=O)[C@]3(C)CCC[C@]4(C)c5ccc(C(C)C)cc5CCC34)OC2=O)cc1` (stereo partly drawn) [Compound 4g, (1R,4aS)-(3-(4-Methoxyphenyl)-2-Oxooxazolidin-5-yl)Methyl-7-Isopropyl-1,4a-Dimethyl-1,2,3,4,4a,9,10,10a-Octahydrophenanthrene-1-Carboxylate], the IC50 came to 6.1 ± 0.35 µM in assay [1]; 19.8 ± 0.3 µM in assay [2]; 4.1 ± 2.45 µM in assay [3]; 14.1 ± 8.04 µM in assay [4]; 26.36 ± 0.15 µM in assay [5].

Take `CC(C)c1ccc2c(c1)CCC1[C@](C)(C(=O)OCC(O)CNc3cccc(Br)c3)CCC[C@]21C` (stereo partly drawn) [Compound 3m, (1R,4aS)-2-Hydroxy-3-(3-Bromophenylamino)Propyl-7-Isopropyl-1,4a-Dimethyl-1,2,3,4,4a,9,10, 10a-Octahydrophenanthrene-1-Carboxylate]: the IC50 in assay [1] was 16.5 ± 5.2 µM; in assay [2] it was 23.2 ± 2.78 µM; in assay [3] it was 30.3 ± 0.59 µM; in assay [4] it was 19.6 ± 1.12 µM; in assay [5], greater than 100 µM.

For the molecule `CC(C)c1ccc2c(c1)CCC1[C@](C)(C(=O)OCC(O)CNc3ccc(F)cc3)CCC[C@]21C` (stereo partly drawn) [Compound 3j, (1R,4aS)-2-Hydroxy-3-(4-Fluorophenylamino)Propyl-7-Isopropyl-1,4a-Dimethyl-1,2,3,4,4a,9,10, 10a-Octahydrophenanthrene-1-Carboxylate], the IC50 in assay [1] was determined as 14.2 ± 1.7 µM; in assay [2], 20.7 ± 2.31 µM; in assay [3], 18.9 ± 1.66 µM; in assay [4] it was 15.6 ± 1.45 µM; in assay [5], 28.7 ± 0.55 µM.

For the molecule `Cc1cccc(N2CC(COC(=O)[C@]3(C)CCC[C@]4(C)c5ccc(C(C)C)cc5CCC34)OC2=O)c1` (stereo partly drawn) [Compound 4c, (1R,4aS)-(3-(3-Methylphenyl)-2-Oxooxazolidin-5-yl)Methyl-7-Isopropyl-1,4a-Dimethyl-1,2,3,4,4a,9,10,10a-Octahydrophenanthrene-1-Carboxylate], the IC50 in assay [1] is 10.5 ± 1.44 µM; in assay [2], 31.96 ± 0.23 µM; in assay [3] it was greater than 100 µM; in assay [4], 9.13 ± 2.77 µM; in assay [5] it was 36.2 ± 2.68 µM.

For `C#Cc1cccc(NCC(O)COC(=O)[C@]2(C)CCC[C@]3(C)c4ccc(C(C)C)cc4CCC23)c1` (stereo partly drawn) [Compound 3o, (1R,4aS)-2-Hydroxy-3-(3-Ethynylphenylamino)Propyl-7-Isopropyl-1,4a-Dimethyl-1,2,3,4,4a,9, 10,10a-Octahydrophenanthrene-1-Carboxylate], the IC50 was 13.4 ± 5.41 µM in assay [1]; 20 ± 1.09 µM in assay [2]; 23.1 ± 2.23 µM in assay [3]; 22.3 ± 2.74 µM in assay [4]; greater than 100 µM in assay [5].

Regarding `COc1ccccc1N1CC(COC(=O)[C@]2(C)CCC[C@]3(C)c4ccc(C(C)C)cc4CCC23)OC1=O` (stereo partly drawn) [Compound 4e, (1R,4aS)-(3-(2-Methoxyphenyl)-2-Oxooxazolidin-5-yl)Methyl-7-Isopropyl-1,4a-Dimethyl-1,2,3,4,4a,9,10,10a-Octahydrophenanthrene-1-Carboxylate], the IC50 was 13.2 ± 1.15 µM in assay [1]; 20.5 ± 0.97 µM in assay [2]; greater than 100 µM in assay [3]; 7.99 ± 6.35 µM in assay [4]; 40.6 ± 1.96 µM in assay [5].
